biological target: GluA1o-γ8 (GRIA1o-CACNG8 fusion construct) (Homo sapiens (Human), UniProt P42261+Q8WXS5); assay: Calcium flux assay (FLIPR), inhibition of TARP γ8 dependent AMPA receptor activity; assay type: cell-based; conditions: GluA1o-γ8 (GRIA1o-CACNG8 fusion) in HEK293 cells, calcium flux after 15 μM glutamate
Procedure, shortened: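 Glutamate (15 μM) was added to a stable HEK293 line carrying the GluA1o–γ8 fusion, which had been preincubated with compound and calcium dye in HEPES buffer, pH 7.4. Normalized FLIPR fluorescence (no compound vs 10 μM CP465022) was fitted with four parameters; pIC50 is the midpoint's negative log.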

Sequence of GluA1o-γ8 (GRIA1o-CACNG8 fusion construct) (P42261 other isoform, or with tags, fused parts or gaps): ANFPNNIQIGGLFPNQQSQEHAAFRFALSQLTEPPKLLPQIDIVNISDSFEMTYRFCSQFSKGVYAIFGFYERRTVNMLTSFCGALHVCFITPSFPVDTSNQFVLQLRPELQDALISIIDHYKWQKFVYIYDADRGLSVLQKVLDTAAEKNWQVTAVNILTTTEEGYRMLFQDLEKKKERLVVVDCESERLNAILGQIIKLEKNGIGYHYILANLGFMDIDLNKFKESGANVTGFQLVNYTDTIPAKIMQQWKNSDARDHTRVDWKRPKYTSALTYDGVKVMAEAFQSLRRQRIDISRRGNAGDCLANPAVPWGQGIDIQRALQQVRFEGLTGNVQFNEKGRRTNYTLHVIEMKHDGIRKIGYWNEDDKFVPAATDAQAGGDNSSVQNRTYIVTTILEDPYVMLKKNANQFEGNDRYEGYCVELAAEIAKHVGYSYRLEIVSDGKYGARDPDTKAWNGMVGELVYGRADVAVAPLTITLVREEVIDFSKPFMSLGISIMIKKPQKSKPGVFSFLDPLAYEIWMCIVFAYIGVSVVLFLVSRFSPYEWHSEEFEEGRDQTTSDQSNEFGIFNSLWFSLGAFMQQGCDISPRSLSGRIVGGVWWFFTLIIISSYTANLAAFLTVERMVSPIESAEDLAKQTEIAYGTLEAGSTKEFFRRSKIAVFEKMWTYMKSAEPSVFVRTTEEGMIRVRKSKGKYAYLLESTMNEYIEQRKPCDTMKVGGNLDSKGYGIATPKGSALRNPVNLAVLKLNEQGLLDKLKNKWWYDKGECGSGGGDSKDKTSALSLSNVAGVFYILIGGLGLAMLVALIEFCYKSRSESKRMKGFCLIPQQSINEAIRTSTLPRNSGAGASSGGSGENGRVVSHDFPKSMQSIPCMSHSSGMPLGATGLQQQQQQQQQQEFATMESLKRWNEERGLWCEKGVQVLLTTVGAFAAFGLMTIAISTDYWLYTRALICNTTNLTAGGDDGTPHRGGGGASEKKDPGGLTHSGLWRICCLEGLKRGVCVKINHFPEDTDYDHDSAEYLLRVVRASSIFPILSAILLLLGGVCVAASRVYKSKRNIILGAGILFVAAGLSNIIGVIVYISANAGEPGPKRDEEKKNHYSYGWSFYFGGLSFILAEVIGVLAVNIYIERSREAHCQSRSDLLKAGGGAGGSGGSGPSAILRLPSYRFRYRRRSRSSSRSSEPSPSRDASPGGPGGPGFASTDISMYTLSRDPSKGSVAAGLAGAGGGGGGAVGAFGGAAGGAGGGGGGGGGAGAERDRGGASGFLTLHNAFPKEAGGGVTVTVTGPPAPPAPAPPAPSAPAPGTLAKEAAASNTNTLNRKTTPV

Compound | IC50 [nM]
FC(F)c1nc2ccc(C(F)(F)F)nc2n1-c1cc(Cl)c2[nH]ncc2c1 [Example 277, 3-(7-Chloro-1H-indazol-5-yl)-2-(difluoromethyl)-5-(trifluoromethyl)imidazo[4,5-b]pyridine] | 0.0631
Cc1ccc2nc(C(F)F)n(-c3cc(Cl)c4[nH]ncc4c3)c2n1 [Example 278, 3-(7-Chloro-1H-indazol-5-yl)-2-(difluoromethyl)-5-methyl-imidazo[4,5-b]pyridine] | 3.16
Fc1cnc2c(c1)nc(C(F)(F)F)n2-c1cc(Cl)c2[nH]ncc2c1 [Example 279, 3-(7-Chloro-1H-indazol-5-yl)-6-fluoro-2-(trifluoromethyl)imidazo[4,5-b]pyridine] | 1.26
FC(F)c1nc2ccc(C(F)(F)F)nc2n1-c1cc(Br)c2[nH]ncc2c1 [Example 280, 3-(7-Bromo-1H-indazol-5-yl)-2-(difluoromethyl)-5-(trifluoromethyl)imidazo[4,5-b]pyridine] | 0.0158
Cc1cc(-n2c(C(F)(F)F)nc3ccc(C(F)(F)F)nc32)cc2sc(=O)[nH]c12 [Example 281, 6-[2,5-Bis(trifluoromethyl)imidazo[4,5-b]pyridin-3-yl]-4-methyl-3H-1,3-benzothiazol-2-one] | 0.0631
O=c1[nH]c2c(Cl)cc(-n3c(C(F)(F)F)nc4ccc(C(F)(F)F)nc43)cc2s1 [Example 282, 6-[2,5-Bis(trifluoromethyl)imidazo[4,5-b]pyridin-3-yl]-4-chloro-3H-1,3-benzothiazol-2-one] | 0.0316
O=c1[nH]c2c(F)cc(-n3c(C(F)(F)F)nc4ccc(C(F)(F)F)nc43)cc2o1 [Example 283, 6-[2,5-Bis(trifluoromethyl)imidazo[4,5-b]pyridin-3-yl]-4-fluoro-3H-1,3-benzoxazol-2-one] | 2.51
COC(=O)c1cc(-n2c(C(F)(F)F)nc3ccc(C(F)(F)F)nc32)cc2cn[nH]c12 [Example 284, Methyl 5-[2,5-bis(trifluoromethyl)imidazo[4,5-b]pyridin-3-yl]-1H-indazole-7-carboxylate] | 126
COC(=O)c1cc(-n2c(C(F)F)nc3ccc(C(F)(F)F)nc32)cc2cn[nH]c12 [Example 285, Methyl 5-[2-(difluoromethyl)-5-(trifluoromethyl)imidazo[4,5-b]pyridin-3-yl]-1H-indazole-7-carboxylate] | 251
Cc1cc(-n2c(C(F)F)nc3ccc(C(F)(F)F)nc32)cc2cn[nH]c12 [Example 286, 2-(Difluoromethyl)-3-(7-methyl-1H-indazol-5-yl)-5-(trifluoromethyl)imidazo[4,5-b]pyridine] | 0.0501
Cc1cc(-n2c(C(F)F)nc3ccc(C(F)(F)F)nc32)cc2c1NC(=O)C2 [Example 287, 5-[2-(Difluoromethyl)-5-(trifluoromethyl)imidazo[4,5-b]pyridin-3-yl]-7-methyl-indolin-2-one] | 0.158
O=C1Cc2cc(-n3c(C(F)F)nc4ccc(C(F)(F)F)nc43)cc(F)c2N1 [Example 288, 5-[2-(Difluoromethyl)-5-(trifluoromethyl)imidazo[4,5-b]pyridin-3-yl]-7-fluoro-indolin-2-one] | 6.31
Cc1cc(-n2c(C(F)(F)F)nc3ccc(C(F)(F)F)nc32)cc2[nH]ncc12 [Example 289, 3-(4-Methyl-1H-indazol-6-yl)-2,5-bis(trifluoromethyl)imidazo[4,5-b]pyridine] | 3.98
O=c1[nH]c2c(Br)cc(-n3c(C(F)(F)F)nc4ccc(C(F)(F)F)nc43)cc2o1 [Example 290, 6-[2,5-Bis(trifluoromethyl)imidazo[4,5-b]pyridin-3-yl]-4-bromo-3H-1,3-benzoxazol-2-one] | 0.2
FC(F)(F)c1ccc2nc(C(F)(F)F)n(-c3ccc4cn[nH]c4c3)c2n1 [Example 291, 3-(1H-Indazol-6-yl)-2,5-bis(trifluoromethyl)imidazo[4,5-b]pyridine] | 63.1
O=C1Cc2cc(-n3c(C(F)(F)F)nc4ccc(C(F)(F)F)nc43)cnc2N1 [Example 292, 5-[2,5-Bis(trifluoromethyl)imidazo[4,5-b]pyridin-3-yl]-1,3-dihydropyrrolo[2,3-b]pyridin-2-one] | 7.94
FC(F)(F)c1ccc2nc(C(F)(F)F)n(-c3cnc4[nH]ccc4c3)c2n1 [Example 293, 3-(1H-Pyrrolo[2,3-b]pyridin-5-yl)-2,5-bis(trifluoromethyl)imidazo[4,5-b]pyridine] | 39.8
Cc1cc(-n2c(C(F)(F)F)nc3ccc(C(F)(F)F)nc32)cc2cn[nH]c12 [Example 294, 3-(7-Methyl-1H-indazol-5-yl)-2,5-bis(trifluoromethyl)imidazo[4,5-b]pyridine] | 0.02
N#Cc1n[nH]c2ccc(-n3c(C(F)(F)F)nc4ccc(C(F)(F)F)nc43)cc12 [Example 295, 5-[2,5-Bis(trifluoromethyl)imidazo[4,5-b]pyridin-3-yl]-1H-indazole-3-carbonitrile] | 39.8
Oc1n[nH]c2ccc(-n3c(C(F)F)nc4ccc(C(F)(F)F)nc43)cc12 [Example 296, 5-[2-(Difluoromethyl)-5-(trifluoromethyl)imidazo[4,5-b]pyridin-3-yl]-1H-indazol-3-ol] | 158

Compound | IC50 [nM]
O=C1Cc2ccc(-n3c(C4CC4)nc4ccc(C(F)(F)F)nc43)cc2N1 [Example 297, 6-[2-Cyclopropyl-5-(trifluoromethyl)imidazo[4,5-b]pyridin-3-yl]indolin-2-one] | 1000
CC(C)c1nc2ccc(C(F)(F)F)nc2n1-c1ccc2[nH]nc(Br)c2c1 [Example 298, 3-(3-Bromo-1H-indazol-5-yl)-2-isopropyl-5-(trifluoromethyl)imidazo[4,5-b]pyridine] | 79.4
CC(C)c1nc2ccc(C(F)(F)F)nc2n1-c1cc(Cl)c2c(c1)CC(=O)N2 [Example 299, 7-Chloro-5-[2-isopropyl-5-(trifluoromethyl)imidazo[4,5-b]pyridin-3-yl]indolin-2-one] | 0.2
CC(C)c1nc2cc(F)cnc2n1-c1cc(Cl)c2[nH]ncc2c1 [Example 300, 3-(7-Chloro-1H-indazol-5-yl)-6-fluoro-2-isopropyl-imidazo[4,5-b]pyridine] | 2.51
CC(C)c1nc2ccc(C(F)(F)F)nc2n1-c1cnc2c(c1)CC(=O)N2 [Example 301, 5-[2-Isopropyl-5-(trifluoromethyl)imidazo[4,5-b]pyridin-3-yl]-1,3-dihydropyrrolo[2,3-b]pyridin-2-one] | 31.6
CC(C)c1nc2ccc(C(F)(F)F)nc2n1-c1cnc2[nH]ncc2c1 [Example 302, 2-Isopropyl-3-(1H-pyrazolo[3,4-b]pyridin-5-yl)-5-(trifluoromethyl)imidazo[4,5-b]pyridine] | 39.8
CC(C)c1nc2ccc(C(F)(F)F)nc2n1-c1cnc2[nH]ccc2c1 [Example 303, 2-Isopropyl-3-(1H-pyrrolo[2,3-b]pyridin-5-yl)-5-(trifluoromethyl)imidazo[4,5-b]pyridine] | 31.6
C=CCc1cc(-n2c(C(F)(F)F)nc3ccc(C(F)(F)F)nc32)cc2cn[nH]c12 [Example 304, 3-(7-Allyl-1H-indazol-5-yl)-2,5-bis(trifluoromethyl)-3H-imidazo[4,5-b]pyridine] | 63.1
C=C(C)c1cc(-n2c(C(F)(F)F)nc3ccc(C(F)(F)F)nc32)cc2cn[nH]c12 [Example 305, 3-(7-(Prop-1-en-2-yl)-1H-indazol-5-yl)-2,5-bis(trifluoromethyl)-3H-imidazo[4,5-b]pyridine] | 0.02
FC(F)(F)c1ccc2ncn(-c3cc(Cl)c4[nH]ncc4c3)c2n1 [Example 306, 3-(7-Chloro-1H-indazol-5-yl)-5-(trifluoromethyl)imidazo[4,5-b]pyridine] | 2.51
FC(F)(F)c1ccc2nc(C3CC3)n(-c3cc(Cl)c4[nH]ncc4c3)c2n1 [Example 307, 3-(7-Chloro-1H-indazol-5-yl)-2-cyclopropyl-5-(trifluoromethyl)imidazo[4,5-b]pyridine] | 0.00501
FC(F)(F)c1ccc2nc(C3CCC3)n(-c3cc(Cl)c4[nH]ncc4c3)c2n1 [Example 308, 3-(7-Chloro-1H-indazol-5-yl)-2-cyclobutyl-5-(trifluoromethyl)imidazo[4,5-b]pyridine] | 0.00501
Cc1cc(-n2c(C)nc3ccc(C(F)(F)F)nc32)cc2c1NC(=O)C2 [Example 309, 7-Methyl-5-[2-methyl-5-(trifluoromethyl)imidazo[4,5-b]pyridin-3-yl]indolin-2-one] | 0.631
Cc1cc(-n2c(C(C)C)nc3ccc(C(F)(F)F)nc32)cc2c1NC(=O)C2 [Example 310, 5-[2-Isopropyl-5-(trifluoromethyl)imidazo[4,5-b]pyridin-3-yl]-7-methyl-indolin-2-one] | 0.158
Cc1cc(-n2c(C(C)C)nc3ccc(C(F)(F)F)nc32)cc2[nH]ncc12 [Example 311, 2-Isopropyl-3-(4-methyl-1H-indazol-6-yl)-5-(trifluoromethyl)imidazo[4,5-b]pyridine] | 15.8
Cc1nc2ccc(C(F)(F)F)nc2n1-c1cc(Cl)c2[nH]ncc2c1 [Example 312, 3-(7-Chloro-1H-indazol-5-yl)-2-methyl-5-(trifluoromethyl)imidazo[4,5-b]pyridine] | 0.251
Cc1nc2ccc(C(F)(F)F)nc2n1-c1cc(Cl)c2c(c1)CC(=O)N2 [Example 313, 7-Chloro-5-[2-methyl-5-(trifluoromethyl)imidazo[4,5-b]pyridin-3-yl]indolin-2-one] | 1
CCc1nc2ccc(C(F)(F)F)nc2n1-c1cc(Cl)c2[nH]ncc2c1 [Example 314, 3-(7-Chloro-1H-indazol-5-yl)-2-ethyl-5-(trifluoromethyl)imidazo[4,5-b]pyridine] | 0.0316
CCc1nc2ccc(C(F)(F)F)nc2n1-c1cc(C)c2[nH]ncc2c1 [Example 315, 2-Ethyl-3-(7-methyl-1H-indazol-5-yl)-5-(trifluoromethyl)imidazo[4,5-b]pyridine] | 0.1
